From patent publication US11446287B2, “Compounds and methods for EP300 or CBP modulation and indications therefor” (Opna Immuno-Oncology SA, priority 2019, dated 2022)

Target: T1, Recombinant human EP300 containing the bromodomain (EP300-BD (1040-1161)) (Homo sapiens, UniProt Q09472)
T1 construct: Recombinant human EP300 bromodomain (EP300-BD (1040-1161)); made in house; host or cells: E. coli BL21-CodonPlus (DE3), modified pET vector
T1 sequence (Q09472 1040-1161): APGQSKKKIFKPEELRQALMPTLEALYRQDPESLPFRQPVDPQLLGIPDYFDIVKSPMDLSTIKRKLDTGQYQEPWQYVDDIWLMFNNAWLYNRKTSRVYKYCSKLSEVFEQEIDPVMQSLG
Assay: EP300 Alphascreen binding assay
Outline: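 Displacement of a biotinylated acetyl-K56 histone H3 peptide from the N-His bromodomain construct (1040-1161) measured by AlphaScreen proximity, beads at 7.5 μg/ml final, read 60 min after addition. Protein, peptide and compound first incubated 1 h at room temperature, pH 7.5 HEPES buffer; IC50 by four-parameter logistic fit.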

`Cc1noc(C)c1-c1cnc2c(c1)c(-c1ccc(C(=O)O)cc1F)cn2[C@@H](C)c1ccccn1` [P-0097, (S)-4-(5-(3,5-dimethylisoxazol-4-yl)-1-(1-(pyridin-2-yl)ethyl)-1H-pyrrolo[2,3-b]pyridin-3-yl)-3-fluorobenzoic acid] and `Cc1noc(C)c1-c1cnc2c(c1)c(-c1ccc(C(=O)O)cc1C(F)(F)F)cn2[C@@H](C)c1ccccn1` [P-0116, (S)-4-(5-(3,5-dimethylisoxazol-4-yl)-1-(1-(pyridin-2-yl)ethyl)-1H-pyrrolo[2,3-b]pyridin-3-yl)-3-(trifluoromethyl)benzoic acid] fall in the same range of IC50: 0.0001 to 1 µM for the first, 0.0001 to 1 µM for the second.

`Cc1noc(C)c1-c1cnc2c(C(=O)c3cccc(OCc4ccccc4)c3)cn(-c3c(Cl)cc(C(=O)O)cc3Cl)c2c1` [P-0133, 4-(3-(3-(benzyloxy)benzoyl)-6-(3,5-dimethylisoxazol-4-yl)-1H-pyrrolo[3,2-b]pyridin-1-yl)-3,5-dichlorobenzoic acid] and `Cc1noc(C)c1-c1cnc2c(Cc3cccc(Cl)c3)cn(-c3c(Cl)cc(C(=O)O)cc3Cl)c2c1` [P-0128, 3,5-dichloro-4-(3-(3-chlorobenzyl)-6-(3,5-dimethylisoxazol-4-yl)-1H-pyrrolo[3,2-b]pyridin-1-yl)benzoic acid] fall in the same range of IC50: 0.0001 to 1 µM for the first, 0.0001 to 1 µM for the second.

`Cc1noc(C)c1-c1cnc2c(c1)c(-c1ccc(C(=O)O)cc1OCc1ccccc1)cn2[C@@H](C)c1ccccn1` [P-0139, (S)-3-(benzyloxy)-4-(5-(3,5-dimethylisoxazol-4-yl)-1-(1-(pyridin-2-yl)ethyl)-1H-pyrrolo[2,3-b]pyridin-3-yl)benzoic acid] and `CCCOc1cc(C(=O)O)ccc1-c1cn([C@@H](C)c2ccccn2)c2ncc(-c3c(C)noc3C)cc12` [P-0113, (S)-4-(5-(3,5-dimethylisoxazol-4-yl)-1-(1-(pyridin-2-yl)ethyl)-1H-pyrrolo[2,3-b]pyridin-3-yl)-3-propoxybenzoic acid] fall in the same range of IC50: 0.0001 to 1 µM for the first, 0.0001 to 1 µM for the second.

`Cc1noc(C)c1-c1cnc2c(c1)c(-c1ccc(C(=O)O)cc1OC(F)(F)F)cn2CC1CC(F)(F)C1` [P-0157, 4-(1-((3,3-difluorocyclobutyl)methyl)-5-(3,5-dimethylisoxazol-4-yl)-1H-pyrrolo[2,3-b]pyridin-3-yl)-3-(trifluoromethoxy)benzoic acid] and `Cc1noc(C)c1-c1cnc2c(c1)c(-c1cccc(C(=O)O)c1)cn2CC1CC(F)(F)C1` [P-0101, 3-(1-((3,3-difluorocyclobutyl)methyl)-5-(3,5-dimethylisoxazol-4-yl)-1H-pyrrolo[2,3-b]pyridin-3-yl)benzoic acid] fall in the same range of IC50: 0.0001 to 1 µM for the first, 0.0001 to 1 µM for the second.

`Cc1noc(C)c1-c1cnc2c(-c3cc(C(=O)O)ccc3C#N)cn(C(C)(c3ccccn3)c3ccccn3)c2c1` [P-0166, 4-cyano-3-(1-(1,1-di(pyridin-2-yl)ethyl)-6-(3,5-dimethylisoxazol-4-yl)-1H-pyrrolo[3,2-b]pyridin-3-yl)benzoic acid] and `COc1c(C(=O)O)cccc1-c1cn(C(C)c2ccccc2)c2cc(-c3c(C)noc3C)cnc12` (stereo not drawn) [P-0136, 3-(6-(3,5-dimethylisoxazol-4-yl)-1-(1-phenylethyl)-1H-pyrrolo[3,2-b]pyridin-3-yl)-2-methoxybenzoic acid] fall in the same range of IC50: 0.0001 to 1 µM for the first, 0.0001 to 1 µM for the second.

`Cc1noc(C)c1-c1cc2c(cn1)c(CC1CCC1)cn2-c1c(Cl)cc(C(=O)O)cc1Cl` [P-0149, 3,5-dichloro-4-(3-(cyclobutylmethyl)-6-(3,5-dimethylisoxazol-4-yl)-1H-pyrrolo[3,2-c]pyridin-1-yl)benzoic acid] and `Cc1noc(C)c1-c1cnc2c(Cc3ccccc3Cl)cn(-c3c(Cl)cc(C(=O)O)cc3Cl)c2c1` [P-0131, 3,5-dichloro-4-(3-(2-chlorobenzyl)-6-(3,5-dimethylisoxazol-4-yl)-1H-pyrrolo[3,2-b]pyridin-1-yl)benzoic acid] fall in the same range of IC50: 0.0001 to 1 µM for the first, 0.0001 to 1 µM for the second.

`Cc1noc(C)c1-c1cnc2c(Cc3cccc(OC(F)F)c3)cn(-c3ccnc(C(=O)O)c3)c2c1` [P-0100, 4-(3-(3-(difluoromethoxy)benzyl)-6-(3,5-dimethylisoxazol-4-yl)-1H-pyrrolo[3,2-b]pyridin-1-yl)picolinic acid] and `Cc1noc(C)c1-c1cnc2c(C(=O)c3cccc(OC(F)F)c3)cn(-c3ccnc(C(=O)O)c3)c2c1` [P-0099, 4-(3-(3-(difluoromethoxy)benzoyl)-6-(3,5-dimethylisoxazol-4-yl)-1H-pyrrolo[3,2-b]pyridin-1-yl)picolinic acid] fall in the same range of IC50: 0.0001 to 1 µM for the first, 0.0001 to 1 µM for the second.

`Cc1noc(C)c1-c1cnc2c(c1)c(-c1ccc(C(=O)O)cc1OC(F)(F)F)cn2-c1ccccn1` [P-0158, 4-(5-(3,5-dimethylisoxazol-4-yl)-1-(pyridin-2-yl)-1H-pyrrolo[2,3-b]pyridin-3-yl)-3-(trifluoromethoxy)benzoic acid] and `Cc1noc(C)c1-c1cnc2c(c1)c(-c1ccc(C(=O)O)cn1)cn2C(C)c1ccccn1` (stereo not drawn) [P-0123, 6-(5-(3,5-dimethylisoxazol-4-yl)-1-(1-(pyridin-2-yl)ethyl)-1H-pyrrolo[2,3-b]pyridin-3-yl)nicotinic acid] fall in the same range of IC50: 0.0001 to 1 µM for the first, 0.0001 to 1 µM for the second.

`COc1cc(C(=O)O)cc(OC)c1-c1cn(C(C)c2ccccc2)c2cc(-c3c(C)noc3C)cnc12` (stereo not drawn) [P-0119, 4-(6-(3,5-dimethylisoxazol-4-yl)-1-(1-phenylethyl)-1H-pyrrolo[3,2-b]pyridin-3-yl)-3,5-dimethoxybenzoic acid] and `Cc1noc(C)c1-c1cnc2c(c1)c(-c1ccc(F)c(C(=O)O)c1F)cn2[C@@H](C)c1ccccn1` [P-0125, (S)-3-(5-(3,5-dimethylisoxazol-4-yl)-1-(1-(pyridin-2-yl)ethyl)-1H-pyrrolo[2,3-b]pyridin-3-yl)-2,6-difluorobenzoic acid] fall in the same range of IC50: 0.0001 to 1 µM for the first, 0.0001 to 1 µM for the second.

`Cc1noc(C)c1-c1cnc2c(c1)c(-c1ccc(C(=O)O)cc1)cn2C(c1ccccn1)C1CCC1` (stereo not drawn) [P-0008, 4-(1-(cyclobutyl(pyridin-2-yl)methyl)-5-(3,5-dimethylisoxazol-4-yl)-1H-pyrrolo[2,3-b]pyridin-3-yl)benzoic acid] and `Cc1noc(C)c1-c1cnc2c(CC3CC3)cn(-c3ccc(C(=O)O)cn3)c2c1` [P-0010, 6-(3-(cyclopropylmethyl)-6-(3,5-dimethylisoxazol-4-yl)-1H-pyrrolo[3,2-b]pyridin-1-yl)nicotinic acid] fall in the same range of IC50: 0.0001 to 1 µM for the first, 0.0001 to 1 µM for the second.

`Cc1noc(C)c1-c1cnc2c(CC3CCC3)cn(-c3ccc(O)nc3)c2c1` [P-0143, 5-(3-(cyclobutylmethyl)-6-(3,5-dimethylisoxazol-4-yl)-1H-pyrrolo[3,2-b]pyridin-1-yl)pyridin-2-ol] gave an IC50 of 1 to 8 µM.
